IC50 data for 25 compounds are collected here from patent US10420772B2, “Animal and human anti-trypanosomonal and anti-leishmania agents” (Celgene Corporation, priority 2016, dated 2019).

Experiment [1] has as its system IL3000 T. congolense (drug sensitive) strain. Kind of experiment: In vitro Alamar Blue 72 hrs drug sensitivity assay for T. congolense. In kind it is cell-based. As to conditions: Trypanosoma congolense, IL3000 T. congolense bloodstream form, read-out: T. congo Act. On the procedure:
In Vitro Alamar Blue 72 Hrs Drug Sensitivity Assay for T. Congolense. Compounds were tested in vitro for chemotherapeutic efficacy against the IL3000 T. congolense (drug sensitive) strain using an Alamar Blue assay. Test compounds were prepared as 10 mg/mL DMSO stocks for each assay run. Compounds were assayed in at least three separate, independent test runs and an 11-point dilution curve was used to determine the IC50 values. Bloodstream form trypanosomes were supported in HMI media containing 20% bovine serum and were incubated with test compounds for 69 hrs at 34° C. in a humidified atmosphere containing 5% CO2. Thereafter, 10 μL of Resazurin dye (12.5 mg in 100 mL of phosphate buffered saline, Sigma-Aldrich, Buchs, Switzerland) were added for an additional 3 hrs. Plates were then read using a fluorescent plate reader (Spectramax, Gemini XS, Bucher Biotec, Basel, Switzerland) using an excitation wavelength of 536 nm and an emission wavelength of 588 nm. Data points were averaged to generate sigmoidal dose-response curves and IC50 values were determined using Softmax Pro 5.2 software.

The test system of experiment [2] is STIB 719/ILRAD 560 T. vivax (drug sensitive) strain. Kind of experiment: Ex vivo Alamar Blue 48 hrs drug sensitivity assay for T. vivax. The class given is cell-based. As to conditions: Trypanosoma vivax, STIB719; STIB 719/ILRAD 560 T. vivax bloodstream form, ex vivo, Alamar Blue, 48 hrs; read-out: T. vivax Act. On the procedure: Ex vivo Alamar Blue48 hrs drug sensitivity assay for T. vivax. Compounds were tested ex vivo for chemotherapeutic efficacy against the STIB 719/ILRAD 560 T. vivax (drug sensitive) strain, using an Alamar Blue assay. Test compounds were prepared as 10 mg/mL DMSO stocks for each assay run. Compounds were assayed in at least three separate, independent test runs and an 11-point dilution curve was used to determine the IC50 values. Bloodstream form trypanosomes were propagated and harvested from a highly parasitaemic mouse (via cardiac puncture) and were incubated with test compounds for 45 hrs at 37° C. in a humidified atmosphere containing 5% CO2, supported in HMI media containing 20% bovine serum. Thereafter, 10 μL of Resazurin dye (12.5 mg in 100 mL of phosphate buffered saline, Sigma-Aldrich, Buchs, Switzerland) were added for an additional 3 hrs. Plates were then read using a fluorescent plate reader (Spectramax, Gemini XS, Bucher Biotec, Basel, Switzerland) using an excitation wavelength of 536 nm and an emission wavelength of 588 nm. Data points were averaged to generate sigmoidal dose-response curves and IC50 values were determined using Softmax Pro 5.2 software.
A general note: The colour change of resazurin is a common sign of viable cells or microbes.

A value given as a limit tells only on which side of the number the result lay.

`CN(C)CC1CCC(n2c(Nc3cccc(Cl)c3F)nc3cnc(NC(C)(C)C)nc32)CC1` (stereo not drawn) [A-60, N2-tert-butyl-N8-(3-chloro-2-fluorophenyl)-9-((1s,4s)-4-((dimethylamino)methyl)cyclohexyl)-9H-purine-2,8-diamine]: the IC50 in experiment [1] and in experiment [2] was under 150 nM in each case. In the case of `CC1(Nc2ncc3nc(Nc4cccc(Cl)c4)n([C@H]4CC[C@@H](CO)CC4)c3n2)CCOCC1` [A-19, ((1s,4s)-4-(8-(3-chlorophenylamino)-2-(4-methyltetrahydro-2H-pyran-4-ylamino)-9H-purin-9-yl)cyclohexyl)methanol], the IC50 in experiment [1] fell in the range of 350 to 500 nM; in experiment [2] it was 150 to 350 nM. On the same counts, the results for `NCC1CCC(n2c(Nc3cc(C(F)(F)F)ccc3F)nc3cnc(NC4CCOCC4)nc32)CC1` (stereo not drawn) [B-16, 9-((1s,4s)-4-(aminomethyl)cyclohexyl)-N8-(2-fluoro-5-(trifluoromethyl)phenyl)-N2-(tetrahydro-2H-pyran-4-yl)-9H-purine-2,8-diamine] are 350 to 500 nM and under 150 nM. On to `NC[C@H]1CC[C@@H](n2c(Nc3cccc(Cl)c3)nc3cnc(NC4CCOCC4)nc32)CC1` [B-1, 9-((1s,4s)-4-(aminomethyl)cyclohexyl)-N8-(3-chlorophenyl)-N2-(tetrahydro-2H-pyran-4-yl)-9H-purine-2,8-diamine], for which the IC50 in experiment [1] lay within 150 to 350 nM; in experiment [2] it was 350 to 500 nM. On the same counts, the results for `CC1(Nc2ncc3nc(Nc4ccccn4)n(C4CCC(CN)CC4)c3n2)CCOCC1` (stereo not drawn) [A-8, 9-((1s,4s)-4-(aminomethyl)cyclohexyl)-N2-(4-methyltetrahydro-2H-pyran-4-yl)-N8-(pyridin-2-yl)-9H-purine-2,8-diamine] are 350 to 500 nM and 150 to 350 nM. Taken in the same sequence, the figures for `CC1(Nc2ncc3nc(Nc4ccc(C(F)(F)F)cc4)n([C@H]4CC[C@@H](CN)CC4)c3n2)CCOCC1` [A-31, 9-((1s,4s)-4-(aminomethyl)cyclohexyl)-N2-(4-methyltetrahydro-2H-pyran-4-yl)-N8-(4-(trifluoromethyl)phenyl)-9H-purine-2,8-diamine] were 150 to 350 nM and under 150 nM. Taken in the same sequence, the figures for `CCC(C)(C)Nc1ncc2nc(Nc3ccc(C(F)(F)F)cc3)n([C@H]3CC[C@@H](CN)CC3)c2n1` [A-23, 9-((1s,4s)-4-(aminomethyl)cyclohexyl)-N2-tert-pentyl-N8-(4-(trifluoromethyl)phenyl)-9H-purine-2,8-diamine] were 350 to 500 nM and 350 to 500 nM.

Consider `CC(C)(C)Nc1ncc2nc(Nc3cccc(C(F)(F)F)c3)n([C@H]3CC[C@@H](CN)CC3)c2n1` [A-15, 9-((1s,4s)-4-(aminomethyl)cyclohexyl)-N2-tert-butyl-N8-(3-(trifluoromethyl)phenyl)-9H-purine-2,8-diamine], for which the IC50 in experiment [1] and in experiment [2] was under 150 nM in each case.

On to `CC1(Nc2ncc3nc(Nc4cccc(Cl)c4)n([C@H]4CC[C@@H](N)CC4)c3n2)CCOCC1` [A-27, 9-((1s,4s)-4-aminocyclohexyl)-N8-(3-chlorophenyl)-N2-(4-methyltetrahydro-2H-pyran-4-yl)-9H-purine-2,8-diamine], for which the IC50 in experiment [1] and in experiment [2] was under 150 nM in each case. For `CC1(Nc2ncc3nc(Nc4cc(C(F)(F)F)ccc4F)n(C4CCC(N)CC4)c3n2)CCOCC1` (stereo not drawn) [A-59, 9-(4-aminocyclohexyl)-N8-(2-fluoro-5-(trifluoromethyl)phenyl)-N2-(4-methyltetrahydro-2H-pyran-4-yl)-9H-purine-2,8-diamine], the IC50 was 150 to 350 nM in experiment [1] and under 150 nM in experiment [2]. Taken in the same sequence, the figures for `CN(C)c1ncc2nc(Nc3cccc(Cl)c3)n(C3CCC(CN)CC3)c2n1` (stereo not drawn) [B-7, 9-((1s,4s)-4-(aminomethyl)cyclohexyl)-N8-(3-chlorophenyl)-N2,N2-dimethyl-9H-purine-2,8-diamine] were 350 to 500 nM and under 150 nM. With `NC1CCC(n2c(Nc3cccc(Cl)c3)nc3cnc(NCC4CC4)nc32)CC1` (stereo not drawn) [B-3, 9-((1r,4r)-4-aminocyclohexyl)-N8-(3-chlorophenyl)-N2-(cyclopropylmethyl)-9H-purine-2,8-diamine], the IC50 in experiment [1] and in experiment [2] was 350 to 500 nM in each case. On to `CC1(Nc2ncc3nc(Nc4cccc(Cl)c4)n([C@H]4CC[C@@H](CN5CCOCC5)CC4)c3n2)CCOCC1` [A-41, N8-(3-chlorophenyl)-N2-(4-methyltetrahydro-2H-pyran-4-yl)-9-((1s,4s)-4-(morpholinomethyl)cyclohexyl)-9H-purine-2,8-diamine], for which the IC50 was under 150 nM in experiment [1] and 350 to 500 nM in experiment [2].

For the compound `CC1(Nc2ncc3nc(Nc4cccc(Cl)c4)n([C@H]4CC[C@@H](CN)CC4)c3n2)CCC1` [A-2, 9-((1s,4s)-4-(aminomethyl)cyclohexyl)-N8-(3-chlorophenyl)-N2-(1-methylcyclobutyl)-9H-purine-2,8-diamine], the IC50 in experiment [1] and in experiment [2] was under 150 nM each time. With `CC1(Nc2ncc3nc(Nc4cccc(C(F)(F)F)n4)n([C@H]4CC[C@@H](CN)CC4)c3n2)CCOCC1` [A-45, 9-((1s,4s)-4-(aminomethyl)cyclohexyl)-N2-(4-methyltetrahydro-2H-pyran-4-yl)-N8-(6-(trifluoromethyl)pyridin-2-yl)-9H-purine-2,8-diamine], the IC50 in experiment [1] and in experiment [2] was 150 to 350 nM in each case.

Consider `CC(C)(C)Nc1ncc2nc(Nc3cccc(C(F)(F)F)c3)n([C@H]3CC[C@@H](N)CC3)c2n1` [A-29, 9-((1s,4s)-4-aminocyclohexyl)-N2-tert-butyl-N8-(3-(trifluoromethyl)phenyl)-9H-purine-2,8-diamine], for which the IC50 in experiment [1] and in experiment [2] was under 150 nM each time. For the compound `CC(=O)NC1CCC(n2c(Nc3cccc(Cl)c3)nc3cnc(NC4(C)CCOCC4)nc32)CC1` (stereo not drawn) [A-25, N-((1s,4s)-4-(8-(3-chlorophenylamino)-2-(4-methyltetrahydro-2H-pyran-4-ylamino)-9H-purin-9-yl)cyclohexyl)acetamide], the IC50 is 350 to 500 nM in experiment [1] and under 150 nM in experiment [2].

As for `Cc1ccc(Nc2nc3cnc(NC(C)(C)C)nc3n2C2CCC(CN)CC2)cc1` (stereo not drawn) [A-18, 9-((1r,4r)-4-(aminomethyl)cyclohexyl)-N2-tert-butyl-N8-p-tolyl-9H-purine-2,8-diamine], the IC50 in experiment [1] is 350 to 500 nM; in experiment [2], 150 to 350 nM. As for `CC1(Nc2ncc3nc(Nc4cc(C(F)(F)F)ccc4F)n([C@H]4CC[C@@H](CN)CC4)c3n2)CCOCC1` [A-42, 9-((1s,4s)-4-(aminomethyl)cyclohexyl)-N8-(2-fluoro-5-(trifluoromethyl)phenyl)-N2-(4-methyltetrahydro-2H-pyran-4-yl)-9H-purine-2,8-diamine], the IC50 in experiment [1] and in experiment [2] was under 150 nM each time. As to `CC(C)(C)Nc1ncc2nc(Nc3cc(Cl)cc(Cl)c3)n([C@H]3CC[C@@H](CN)CC3)c2n1` [A-48, 9-((1s,4s)-4-(aminomethyl)cyclohexyl)-N2-tert-butyl-N8-(3,5-dichlorophenyl)-9H-purine-2,8-diamine], the IC50 was 150 to 350 nM in experiment [1] and 350 to 500 nM in experiment [2]. Taken in the same sequence, the figures for `CC(C)(C)Nc1ncc2nc(Nc3cccc(C(F)(F)F)c3)n([C@H]3CC[C@H](CN)CC3)c2n1` [A-17, 9-((1r,4r)-4-(aminomethyl)cyclohexyl)-N2-tert-butyl-N8-(3-(trifluoromethyl)phenyl)-9H-purine-2,8-diamine] were under 150 nM and under 150 nM.

Take `OCC1CCC(n2c(Nc3cccc(Cl)c3)nc3cnc(NC4CCOCC4)nc32)CC1` (stereo not drawn) [B-6, ((1s,4s)-4-(8-(3-chlorophenylamino)-2-(tetrahydro-2H-pyran-4-ylamino)-9H-purin-9-yl)cyclohexyl)methanol]: the IC50 in experiment [1] and in experiment [2] was 350 to 500 nM each time. With `CC1(Nc2ncc3nc(Nc4cccc(Cl)c4)n(C4CC(N)C4)c3n2)CCOCC1` (stereo not drawn) [A-35, 9-(3-aminocyclobutyl)-N8-(3-chlorophenyl)-N2-(4-methyltetrahydro-2H-pyran-4-yl)-9H-purine-2,8-diamine], the IC50 in experiment [1] and in experiment [2] was under 150 nM each time.

Consider `NCC1CCC(n2c(Nc3cccc(Cl)c3F)nc3cnc(NC4CCOCC4)nc32)CC1` (stereo not drawn) [B-13, 9-((1s,4s)-4-(aminomethyl)cyclohexyl)-N8-(3-chloro-2-fluorophenyl)-N2-(tetrahydro-2H-pyran-4-yl)-9H-purine-2,8-diamine], for which the IC50 in experiment [1] was under 150 nM.

With `CC1(Nc2ncc3nc(Nc4cccc(C(F)(F)F)c4)n(C4CCC(CN)CC4)c3n2)CCC1` (stereo not drawn) [A-57, 9-((1s,4s)-4-(aminomethyl)cyclohexyl)-N2-(1-methylcyclobutyl)-N8-(3-(trifluoromethyl)phenyl)-9H-purine-2,8-diamine], the IC50 in experiment [1] was under 150 nM.
